These results are taken from patent US20230322735A1, “AZETIDINYL TRYPTAMINES AND METHODS OF TREATING PSYCHIATRIC DISORDERS” (priority 2020, published 2023).

Each structure is given as a SMILES string.

The term EC50 denotes the concentration needed to bring the measured effect to its halfway point. The half-life is the time in which the quantity being followed falls by half. Low readings indicate fast loss, high ones slow loss. Broadly, the microsomal CLint is the capacity of the preparation to metabolise the compound, expressed as a volume cleared per time. Higher therefore signals rapid turnover.

For data set [1], the target named is T1, 5-HT2B receptor (Homo sapiens, UniProt P41595).
T1 construct: host or cells: HEK293
T1 sequence (P41595 whole entry): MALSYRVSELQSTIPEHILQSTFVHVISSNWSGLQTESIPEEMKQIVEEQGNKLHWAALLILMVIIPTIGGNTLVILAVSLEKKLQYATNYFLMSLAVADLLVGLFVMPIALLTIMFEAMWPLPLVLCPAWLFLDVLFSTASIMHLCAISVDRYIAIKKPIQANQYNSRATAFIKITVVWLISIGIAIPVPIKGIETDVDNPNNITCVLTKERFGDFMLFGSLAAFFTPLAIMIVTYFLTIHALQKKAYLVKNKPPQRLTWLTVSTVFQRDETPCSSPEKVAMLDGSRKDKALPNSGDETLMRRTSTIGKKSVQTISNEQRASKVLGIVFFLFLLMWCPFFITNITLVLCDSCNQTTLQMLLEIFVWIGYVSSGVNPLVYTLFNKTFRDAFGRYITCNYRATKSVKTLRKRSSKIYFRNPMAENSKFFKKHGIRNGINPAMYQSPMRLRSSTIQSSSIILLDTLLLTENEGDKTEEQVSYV
The data set can be described thus: FLIPR Ca2+ flux agonist assay at 5-HT2B (HEK293). The data set is classed as cell-based. As to the method:
A solution of 250 mM probenecid in 1 mL FLIPR assay buffer was prepared fresh. This was combined with a fluorescent dye (Fluo-4 Direct™) to make a final assay concentration of 2.5 mM. […] The fluorescent dye was then added to the assay plate along with assay buffer to a final volume of 40 μL. The cell plate was incubated for 50 min at 37° C. and 5% CO2 and placed into the FLIPR Tetra along with the compound plate. 10 μL of references and compounds were then transferred from the compound plate into the cell plate and the fluorescent signal was read.
A general note: Calcium flux is commonly read through the fluorescence of an indicator in the cells.

Data set [2] has as its system C57BL/6 mice. The experiment in a line: Head twitch response (HTR) in mice. The data set is classed as in vivo, mouse. Particulars: SC.
Data set [3] has as its system Sprague Dawley rats. The experiment in a line: Forced swim test (FST) in rats. The data set is classed as in vivo, rat. Particulars: SC. The method, then:
These effects on swimming were stronger than those induced by the control antidepressant desipramine.
Animals. Male Sprague Dawley rats, aged 8-10 weeks, were used in the experiments. Animals were housed in groups of 2 under controlled temperature (22±3° C.) and relative humidity (30-70%) conditions, with 12-hour light/dark cycles, and with ad libitum food and water. These studies were carried out in strict accordance with the requirements of the Committee for the Purpose of Control and Supervision of Experiments on Animals (CPCSEA), India. All efforts were made to minimize suffering.
Drugs and Drug Administration. Compound 2 was prepared as described above. All other compounds were commercially obtained. Test compounds, saline vehicle, and the positive control desipramine were administered subcutaneously (SC), with doses calculated based on the free base. […] All compounds were administered at a volume of 5 mL/kg. Test compounds and vehicle were administered 0.5 h after the start of the training swim (Swim 1) and 23.5 h before the test swim (Swim 2). Desipramine was administered 3 times, at 23.5 h, 5 h, and 1 h before the test swim (Swim 2), each time at a dose of 20 mg/kg.
Forced Swim Test (FST). […] Group size was N=10 per treatment, except for the vehicle and desipramine groups, which were N=20. Rats were handled for about 2 min daily for the 5 days prior to the beginning of the experimental procedure. On the first day of the experiment (i.e., Day 0), post randomization, training swim sessions (Swim 1) were conducted between 12:00 and 18:00 h with all animals by placing rats in individual glass cylinders (46 cm tall×20 cm in diameter) containing 23-25° C. water 30 cm deep for 15 minutes. At the conclusion of Swim 1, animals were dried with paper towels, placed in heated drying cages for 15 minutes, and then returned to their home cages. […]
Behavioral scoring was conducted by observers who were blind to the treatment groups. Animals were continuously observed during Swim 2 and the total time spent engaging in the following behaviors was recorded: immobile, swimming, and climbing. […]

Data set [4] is described as follows: Chemical stability of the product on storage and analysis. The data set is classed as physicochemical. As to the method: Note: The product 2 is unstable and should be stored frozen, protected from light, and under inert gas. If stored properly, stability has been confirmed by qNMR for at least 1 month.
A mixture of 3-(2-(azetidin-1-yl)ethyl)-1H-indol-4-ol (2, 50 mg, 231.18 μmol, 1 eq) and pyridine (23.77 mg, 300.54 μmol, 24.26 μL, 1.3 eq) in DCM (1 mL) was cooled to 0° C. Then acetic anhydride (25.96 mg, 254.30 μmol, 23.82 μL, 1.1 eq) was added dropwise at 0° C. and the resulting mixture was stirred at 25° C. for 1 h. At this time, the solvent was removed and the residue was purified by prep-HPLC (column=Waters Xbridge BEH C18 (100*30 mm, 10 μm); mobile phase=water(NH4HCO3)-ACN, B %=5%-40%; 10 min run time) to provide 3-(2-(azetidin-1-yl)ethyl)-1H-indol-4-yl acetate (4) as a white solid (20 mg, 33% yield). ^1H NMR (400 MHz, DMSO-d6) δ 11.01 (br s, 1H), 7.22 (d, J=8.0 Hz, 1H), 7.11 (d, J=1.6 Hz, 1H), 7.02 (t, J=8.0 Hz, 1H), 6.64 (d, J=7.6 Hz, 1H), 3.09 (t, J=6.8 Hz, 4H), 2.57-2.54 (m, 4H), 2.32 (s, 3H), 1.96-1.90 (m, 2H); LCMS (RT=0.983 min, MS calc.: 258.14, [M+H]+=259.1).

Data set [5] in a line: Stability in rat brain homogenate.
Data set [6] is described as follows: Stability in mouse brain homogenate.
Data set [7] is described as follows: Metabolic stability in human liver microsomes (HLM). For orientation: Liver microsomes are a subcellular fraction often used to study metabolism.
The mark [8] stands for this setting: single dose 23.5 h before test swim, vs vehicle.
The mark [9] stands for this setting: both, human, pooled human liver microsomes, pH 7.4.

With `Oc1cccc2[nH]cc(CCN3CCC3)c12` [Compound 2, 3-(2-(azetidin-1-yl)ethyl)-1H-indol-4-ol], in data set [1], the EC50 is above 10 µM. In addition, the “5-HT2B % Act @ Max Dose” value in data set [1] (Ca2+ flux, agonist mode, HEK293) is on record as 3.83%. The “Average HTR Over 20-min Test” value in data set [2] (dose 0.1 mg/kg) is 4.667; in data set [2] (dose 1 mg/kg) it was 8.667; in data set [2] (dose 10 mg/kg) it was 9.000. In data set [3] (23.5 h pre-treatment, lowest dose tested), the “dose with significant effect on immobility in the FST” value is reported as at most 0.1 mg/kg. For the same compound, the “immobility time in the FST” value in data set [3] (setting [8]) is on record as “reduced immobility time”. The “swimming time in the FST” value in data set [3] (setting [8]) is “significant increases in swimming”. In data set [4] (storage), the “stability of the product (in words)” value was “unstable”. In addition, the “time for which stability was confirmed by qNMR” value in data set [4] (stored frozen, protected from light, under inert gas) is “at least 1 month”. The “stability in rat brain homogenate (in words)” value in data set [5] was “good stability”. Besides, the half-life at 1 μM in data set [5] (male, Sprague Dawley, rat, rat brain homogenate) is 2.91 h; in data set [6] (male, CD-1, mouse, mouse brain homogenate), above 4.82 h; in data set [7] (setting [9]), above 2.42 h. The “% Compound Remaining (after 120 min)” value in data set [5] (rat brain homogenate (male Sprague Dawley), 1 μM, 37° C., 120 min) was 56.8%; in data set [6] (mouse brain homogenate (male CD-1), 1 μM, 37° C., 120 min), 74.2%. Also, the “stability in mouse brain homogenate (in words)” value in data set [6] is given as “good stability”. The compound further came in with a microsomal CLint at 1 μM in data set [7] (setting [9]) below 9.6 µL/min/mg. Also, the “metabolic stability in HLM compared with dimethyl counterpart” value in data set [7] (vs DMT, psilocin, 5-MeO-DMT respectively) is on record as “greater metabolic stability”.
